In PubChem BioAssay (NCI):
Several values for one entry are separate records, joined by “and”; a condition that tells them apart may be missing. Equal values may be shown once.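 How tested: cells in 96-well plates exposed to compound for 48 hours at five concentrations. GI50 = concentration required for 50% inhibition of growth. The concentration for full growth arrest is given as TGI.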

Legend:
Experiment in all cases: NCI tumour cell line growth inhibition, 48 h
BT-549 breast = test system: BT-549 breast
DU-145 prostate = test system: DU-145 prostate
HT29 colon = test system: HT29 colon
MALME-3M melanoma = test system: MALME-3M melanoma
NCI/ADR-RES ovarian = test system: NCI/ADR-RES ovarian
OVCAR-8 ovarian = test system: OVCAR-8 ovarian
RXF 393 renal = test system: RXF 393 renal
T-47D breast = test system: T-47D breast
TK-10 renal = test system: TK-10 renal
UACC-62 melanoma = test system: UACC-62 melanoma

## COC1=C(OC)C(=O)C(C/C=C/c2c(Cl)nc3sccn23)=C(C)C1=O
BT-549 breast
  TGI: 28.8 µM
DU-145 prostate
  TGI: 40.3 µM
HT29 colon
  TGI: 46.9 µM
MALME-3M melanoma
  TGI: 17 µM
NCI/ADR-RES ovarian
  TGI: 29.6 µM
OVCAR-8 ovarian
  TGI: 24.2 µM
RXF 393 renal
  TGI: 37.5 µM
T-47D breast
  TGI: 84.2 µM
TK-10 renal
  TGI: 34.9 µM
UACC-62 melanoma
  TGI: 29.1 µM

## C[n+]1ccc2/c(=C\C#N)c3ccccc3n21
BT-549 breast
  TGI: 52.8 µM
DU-145 prostate
  TGI: 46.4 µM
HT29 colon
  TGI: 72.1 µM
MALME-3M melanoma
  TGI: 44.6 µM
NCI/ADR-RES ovarian
  TGI: > 100 µM
OVCAR-8 ovarian
  TGI: > 100 µM
RXF 393 renal
  TGI: > 100 µM
T-47D breast
  TGI: 32.7 µM
TK-10 renal
  TGI: 63.9 µM
UACC-62 melanoma
  TGI: > 100 µM

## CC(=O)C(C(=O)C(=O)Nc1cc(Cl)c(Cl)cc1Cl)c1csc(N)n1 (centres undefined)
HT29 colon
  TGI: > 100 µM
OVCAR-8 ovarian
  TGI: > 100 µM
RXF 393 renal
  TGI: > 100 µM
TK-10 renal
  TGI: > 100 µM
UACC-62 melanoma
  TGI: > 100 µM

## O=[N+]([O-])c1cc(C(F)(F)F)cc2c1SC1=Nc3ccccc3CN12
HT29 colon
  TGI: > 100 µM
MALME-3M melanoma
  TGI: > 100 µM
NCI/ADR-RES ovarian
  TGI: > 100 µM
OVCAR-8 ovarian
  TGI: > 100 µM
RXF 393 renal
  TGI: > 100 µM
UACC-62 melanoma
  TGI: > 100 µM

## Oc1ccccc1CNCc1ccccc1O
BT-549 breast
  TGI: > 100 µM
DU-145 prostate
  TGI: > 100 µM
HT29 colon
  TGI: > 100 µM
MALME-3M melanoma
  TGI: > 100 µM
NCI/ADR-RES ovarian
  TGI: > 100 µM
OVCAR-8 ovarian
  TGI: > 100 µM
RXF 393 renal
  TGI: > 100 µM
T-47D breast
  TGI: > 100 µM
TK-10 renal
  TGI: > 100 µM
UACC-62 melanoma
  TGI: > 100 µM

## NCCNc1ccc(NCCN)c2c1C(=O)c1c(O)ccc(O)c1C2=O
BT-549 breast
  TGI: 2.18 µM
DU-145 prostate
  GI50: 0.0301 µM
  TGI: 0.398 µM and 2.56 µM
HT29 colon
  GI50: 0.0922 µM
  TGI: 1.34 µM and 1.23 µM
MALME-3M melanoma
  GI50: 0.112 µM
  TGI: 1.46 µM and 1.34 µM
NCI/ADR-RES ovarian
  GI50: 0.237 µM
  TGI: 1.39 µM and 2.84 µM
OVCAR-8 ovarian
  GI50: 0.02 µM
  TGI: 0.466 µM and 0.353 µM
RXF 393 renal
  GI50: 0.179 µM
  TGI: 0.387 µM and 0.679 µM
T-47D breast
  TGI: 2.66 µM and 4.38 µM
TK-10 renal
  GI50: 0.289 µM
  TGI: 3.64 µM and 1.4 µM
UACC-62 melanoma
  GI50: 0.0228 µM
  TGI: 0.89 µM and 0.313 µM

## CCC/C=C/C=C\C(=O)O[C@@H]1[C@@H](C)[C@]2(O)[C@@H]3C=C(C)C(=O)[C@H]3CC(COC(C)=O)=C[C@H]2[C@@H]2C(C)(C)[C@]12OC(C)=O
HT29 colon
  TGI: 84.6 µM
MALME-3M melanoma
  TGI: 86.6 µM
NCI/ADR-RES ovarian
  TGI: 114 µM
OVCAR-8 ovarian
  TGI: 116 µM
RXF 393 renal
  TGI: 113 µM
UACC-62 melanoma
  TGI: 82.5 µM

## CCCc1cn2c(/C=N/N=C(N)N)c(-c3ccc([N+](=O)[O-])cc3)nc2s1
HT29 colon
  TGI: > 100 µM
MALME-3M melanoma
  TGI: 3.86 µM
OVCAR-8 ovarian
  TGI: 3.21 µM
T-47D breast
  TGI: 2.71 µM
TK-10 renal
  TGI: 3.93 µM
UACC-62 melanoma
  TGI: 3.35 µM

## Cn1cc(-c2csc(-c3cn(CCCN4CCCCC4)c4ccc(Br)cc34)n2)c2cccnc21
DU-145 prostate
  GI50: 1.79 µM
  TGI: 3.21 µM
MALME-3M melanoma
  GI50: 1.58 µM
  TGI: 3.16 µM
NCI/ADR-RES ovarian
  GI50: 1.92 µM
  TGI: 3.73 µM
RXF 393 renal
  GI50: 1.64 µM
  TGI: 3.19 µM
TK-10 renal
  GI50: 1.69 µM
  TGI: 3.16 µM
UACC-62 melanoma
  GI50: 1.78 µM
  TGI: 3.4 µM

## Oc1c(Cl)c(Cl)c(O)c(-c2cnc(-c3ncc(-c4c(O)c(Cl)c(Cl)c(O)c4Cl)s3)s2)c1Cl
DU-145 prostate
  TGI: > 100 µM
HT29 colon
  TGI: > 100 µM
MALME-3M melanoma
  TGI: 71.3 µM
NCI/ADR-RES ovarian
  TGI: 71.6 µM
OVCAR-8 ovarian
  TGI: 52.7 µM
RXF 393 renal
  TGI: 43.8 µM
T-47D breast
  TGI: > 100 µM
TK-10 renal
  TGI: 70.1 µM
UACC-62 melanoma
  TGI: 46.8 µM

## O=C(N/N=C/c1cc(Cl)cc(Cl)c1[OH2+])c1ccncc1.O=S(=O)([O-])[O-].[Fe+2]
HT29 colon
  TGI: 28.6 µM
MALME-3M melanoma
  TGI: 29.3 µM
OVCAR-8 ovarian
  TGI: > 100 µM
RXF 393 renal
  TGI: 82.1 µM
TK-10 renal
  TGI: 56 µM
UACC-62 melanoma
  TGI: 41 µM

## CC(=O)OC1(C)CC(C)C(=O)C(C(O)CC2CC(=O)NC(=O)C2)C1 (centres undefined)
BT-549 breast
  GI50: 0.0148 µM
DU-145 prostate
  TGI: 0.449 µM and 0.264 µM
HT29 colon
  TGI: 0.133 µM
MALME-3M melanoma
  TGI: 0.375 µM and 0.753 µM
NCI/ADR-RES ovarian
  TGI: 0.744 µM and 0.341 µM
OVCAR-8 ovarian
  TGI: 0.965 µM and 0.406 µM
RXF 393 renal
  TGI: 0.0899 µM
T-47D breast
  TGI: 0.583 µM
TK-10 renal
  GI50: 0.0117 µM
  TGI: 0.164 µM
UACC-62 melanoma
  TGI: 0.0113 µM

## COc1cccc2c1C(=O)c1c(O)c3c(c(O)c1C2=O)CC(O)(C(C)=O)CC3OC1OC(COC(C)=O)C(OC(C)=O)C(OC(C)=O)C1OC(C)=O (centres undefined)
DU-145 prostate
  TGI: > 100 µM
HT29 colon
  TGI: > 100 µM
MALME-3M melanoma
  TGI: > 100 µM
NCI/ADR-RES ovarian
  TGI: > 100 µM
OVCAR-8 ovarian
  TGI: 37.2 µM
RXF 393 renal
  TGI: 7.25 µM
T-47D breast
  TGI: > 100 µM
TK-10 renal
  TGI: 61.8 µM
UACC-62 melanoma
  TGI: > 100 µM

## C[N+]1(C)C/C(=C\C=C\c2ccccc2)C(=O)/C(=C/C=C/c2ccccc2)C1
BT-549 breast
  TGI: 8.39 µM
DU-145 prostate
  TGI: 37.2 µM
HT29 colon
  TGI: 26.6 µM
MALME-3M melanoma
  TGI: 40.4 µM
NCI/ADR-RES ovarian
  TGI: > 100 µM
OVCAR-8 ovarian
  TGI: 53.1 µM
RXF 393 renal
  TGI: > 61.1 µM
T-47D breast
  TGI: 47.4 µM
TK-10 renal
  TGI: > 67.1 µM
UACC-62 melanoma
  TGI: 14.2 µM

## CC(C)(C)c1cc(OCc2n[nH]c(=S)n2N)c(Cl)cc1OCc1n[nH]c(=S)n1N
BT-549 breast
  TGI: > 100 µM
DU-145 prostate
  TGI: > 100 µM
HT29 colon
  TGI: > 100 µM
MALME-3M melanoma
  TGI: > 100 µM
NCI/ADR-RES ovarian
  TGI: > 100 µM
OVCAR-8 ovarian
  TGI: > 100 µM
RXF 393 renal
  TGI: > 100 µM
T-47D breast
  TGI: > 100 µM
TK-10 renal
  TGI: > 100 µM
UACC-62 melanoma
  TGI: 50.3 µM

## COc1cc2c(cc1OC)-c1cc3cc(OC)c(OC)cc3c(C)[n+]1CC2 (tested in a mixture with another compound)
BT-549 breast
  TGI: > 100 µM
DU-145 prostate
  TGI: > 100 µM
HT29 colon
  TGI: > 100 µM
MALME-3M melanoma
  TGI: > 100 µM
NCI/ADR-RES ovarian
  TGI: > 100 µM
OVCAR-8 ovarian
  TGI: > 100 µM
RXF 393 renal
  TGI: > 100 µM
T-47D breast
  TGI: 25.2 µM
TK-10 renal
  TGI: > 100 µM
UACC-62 melanoma
  TGI: 95.5 µM

## CCn1c(=O)c2c3ccc(O)cc3[nH]c2c2ccc(O)cc21
BT-549 breast
  TGI: > 100 µM
DU-145 prostate
  TGI: > 100 µM
HT29 colon
  TGI: > 100 µM
MALME-3M melanoma
  TGI: > 100 µM
NCI/ADR-RES ovarian
  TGI: > 100 µM
OVCAR-8 ovarian
  TGI: > 100 µM
RXF 393 renal
  TGI: > 100 µM
T-47D breast
  TGI: > 100 µM
TK-10 renal
  TGI: > 100 µM
UACC-62 melanoma
  TGI: > 100 µM

## O=C(N/N=C/c1cc(Cl)cc(Cl)c1[O-])c1ccccc1O.O=C(N/N=C/c1cc(Cl)cc(Cl)c1[O-])c1ccccc1O.[Fe+2]
MALME-3M melanoma
  GI50: 22 µM
  TGI: 61.9 µM
OVCAR-8 ovarian
  TGI: 34.3 µM
RXF 393 renal
  TGI: 28.8 µM
TK-10 renal
  TGI: > 100 µM
UACC-62 melanoma
  TGI: 52.4 µM

## CCN(CC)CCCNC(=O)c1ccccc1Nc1c(Cl)cccc1Cl
HT29 colon
  TGI: 16.5 µM
OVCAR-8 ovarian
  TGI: 31.6 µM
RXF 393 renal
  TGI: 23 µM
TK-10 renal
  TGI: 23.7 µM
UACC-62 melanoma
  TGI: 25.3 µM

## O=[N+]([O-])c1ccc(C2NC(=S)NC3c4cc([N+](=O)[O-])ccc4CCCC23)cc1 (centres undefined)
BT-549 breast
  TGI: > 100 µM
DU-145 prostate
  TGI: > 100 µM
HT29 colon
  TGI: > 100 µM
MALME-3M melanoma
  TGI: > 100 µM
NCI/ADR-RES ovarian
  TGI: > 100 µM
OVCAR-8 ovarian
  TGI: > 100 µM
RXF 393 renal
  TGI: 45.2 µM
T-47D breast
  TGI: > 100 µM
TK-10 renal
  TGI: > 100 µM
UACC-62 melanoma
  TGI: > 100 µM

## Nc1n[nH]c(N)n1
BT-549 breast
  TGI: > 10000 µM
DU-145 prostate
  TGI: > 10000 µM
HT29 colon
  TGI: > 10000 µM
MALME-3M melanoma
  TGI: > 10000 µM
NCI/ADR-RES ovarian
  TGI: > 10000 µM
OVCAR-8 ovarian
  TGI: > 10000 µM
RXF 393 renal
  TGI: > 10000 µM
T-47D breast
  TGI: > 10000 µM
TK-10 renal
  TGI: > 10000 µM
UACC-62 melanoma
  TGI: 7470 µM

## O=c1[nH]c(Br)nc2n[nH]nc12
BT-549 breast
  TGI: > 100 µM
DU-145 prostate
  TGI: > 100 µM
HT29 colon
  TGI: > 100 µM
MALME-3M melanoma
  TGI: > 100 µM
NCI/ADR-RES ovarian
  TGI: > 100 µM
OVCAR-8 ovarian
  TGI: > 100 µM
RXF 393 renal
  TGI: > 100 µM
T-47D breast
  TGI: > 100 µM
TK-10 renal
  TGI: > 100 µM
UACC-62 melanoma
  TGI: > 100 µM
